The values below come from PubChem BioAssay (NCI).

Structures are written as SMILES.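 Cells were grown in 96-well plates and exposed to each compound for 48 hours at five concentrations; endpoints were interpolated linearly between bracketing concentrations, or set to the highest concentration if not reached. TGI: total growth inhibition.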

Some test systems named below: HOP-62 NSCLC; CCRF-CEM leukemia; HS 578T breast; NCI-H460 lung; HCT-15 colon; SK-MEL-28 melanoma; EKVX NSCLC; BT-549 breast; SK-MEL-5 melanoma; MOLT-4 leukemia.
Assay in all cases: NCI tumour cell line growth inhibition, 48 h

As to `CN1CCC(C(O)(c2ccccc2)c2ccc(Br)cc2)CC1` (stereo not given), the TGI was 83.8 µM in the test on HOP-62 NSCLC; greater than 100 µM in the test with CCRF-CEM leukemia; greater than 100 µM in the test with HS 578T breast; 62.5 µM with NCI-H460 lung; greater than 100 µM with HCT-15 colon; 35.1 µM in the test on SK-MEL-28 melanoma. Besides, the TGI with EKVX NSCLC was greater than 100 µM; with BT-549 breast, greater than 100 µM; with SK-MEL-5 melanoma, 27.9 µM; in the test on MOLT-4 leukemia, 61.3 µM.
On to `COc1ccc2nc3cc(Cl)ccc3c(NCCCN3CCN(CCCNc4ccc5nnn6c7ccccc7c(=O)c4c56)CC3)c2c1`, for which the TGI in the test on HOP-62 NSCLC, with CCRF-CEM leukemia, with HS 578T breast, in the test with NCI-H460 lung, with HCT-15 colon and in the test on SK-MEL-28 melanoma was greater than 25 µM each time. Further, the TGI was greater than 25 µM with EKVX NSCLC, greater than 14.8 µM in the test on BT-549 breast, greater than 25 µM in the test with SK-MEL-5 melanoma and greater than 25 µM in the test on MOLT-4 leukemia.
In the case of `O=C(O)c1cc2ccccc2c(N=Nc2ccc(S(=O)(=O)Nc3ncccn3)cc2)c1O`, the TGI in the test on HOP-62 NSCLC, in the test on CCRF-CEM leukemia, in the test on HS 578T breast, in the test on NCI-H460 lung, in the test with HCT-15 colon and in the test on SK-MEL-28 melanoma was greater than 100 µM in each case. The TGI in the test with EKVX NSCLC, in the test with BT-549 breast, in the test on SK-MEL-5 melanoma and with MOLT-4 leukemia was greater than 100 µM each time.
In the case of `COC(=O)/C=C\C(C#N)(C#N)N=Cc1ccc(OC)cc1`, the TGI with HOP-62 NSCLC came out at 33.9 µM; with CCRF-CEM leukemia, 2.53 µM; in the test with HS 578T breast it was 33.7 µM; with NCI-H460 lung, 42.5 µM; in the test with HCT-15 colon it was 13.2 µM; in the test with SK-MEL-28 melanoma, 12.8 µM. The TGI with EKVX NSCLC worked out at 32 µM; with BT-549 breast it was 10.4 µM; with SK-MEL-5 melanoma it was 32.6 µM; with MOLT-4 leukemia, 4.39 µM.
`Oc1ccccc1C=Nc1ccc(-c2nc3ccccc3s2)cc1`: the TGI in the test with HOP-62 NSCLC was 52.2 µM; in the test on CCRF-CEM leukemia it was greater than 100 µM; in the test on HS 578T breast, greater than 100 µM; with NCI-H460 lung, 83.5 µM; with HCT-15 colon, greater than 100 µM; with SK-MEL-28 melanoma, greater than 100 µM. Also, the TGI in the test with EKVX NSCLC is 85.2 µM; in the test with BT-549 breast, greater than 100 µM; with SK-MEL-5 melanoma it was 31.9 µM; with MOLT-4 leukemia it was greater than 100 µM.
On to `COC(=O)c1c(O)ccc2c1c1c(n2Cc2cc(OC)cc(OC)c2)C(=O)c2ccccc2C1=O`, for which the TGI was 23 µM with HOP-62 NSCLC; 78.6 µM in the test on CCRF-CEM leukemia; 45.9 µM in the test with HS 578T breast; 19 µM with NCI-H460 lung; 21.1 µM in the test with HCT-15 colon; 33 µM in the test on SK-MEL-28 melanoma. The TGI in the test on EKVX NSCLC is 51.5 µM; in the test on BT-549 breast it was 29 µM; in the test with SK-MEL-5 melanoma it was 26.7 µM; in the test with MOLT-4 leukemia it was 73.3 µM.
